{
  "source": "ChEMBL document CHEMBL5614390",
  "about": "“Novel EGFR inhibitors against resistant L858R/T790M/C797S mutant for intervention of non-small cell lung cancer” (Eur J Med Chem, 2024)",
  "key": {"[1]": {"tested_on": "HCC827", "assay": "cells", "conditions": "Homo sapiens, HCC827, 72 h", "description": "Cytotoxicity against human HCC827 cells expressing EGFR Del19 mutant assessed as inhibition of cell proliferation incubated for 72 hrs by CCK8 assay"}, "[2]": {"tested_on": "PC-9", "assay": "Induction of apoptosis in human PC-9 cells expressing EGFR Del19/T790M/C797S mutant assessed as late apoptotic cells at 1 uM incubated for 48 hrs by Annexin V-FITC/PI staining based flow cytometric analysis (reference value: 0.040 %)", "format": "functional"}, "[3]": {"tested_on": "PC-9", "assay": "Antitumor activity against human PC-9 cells expressing EGFR L858R/T790M/C797S mutant xenografted in BALB/c nude mouse assessed as tumor growth inhibition at 20 mg/kg, po administered for 18 days relative to control", "format": "functional", "conditions": "PC-9, 432 h, time 18 day, read-out: TGI"}, "[4]": {"assay": "Metabolic stability in Sprague-Dawley rat liver microsomes assessed as half-life at 10 uM preincubated for 5 mins followed by NADPH addition and measured upto 60 mins by HPLC analysis", "format": "ADME, Microsome", "conditions": "time < 65 min"}, "[5]": {"tested_on": "PC-9", "assay": "Induction of apoptosis in human PC-9 cells expressing EGFR Del19/T790M/C797S mutant assessed as necrotic cells at 1 uM incubated for 48 hrs by Annexin V-FITC/PI staining based flow cytometric analysis (reference value: 0.090 %)", "format": "functional"}, "[6]": {"assay": "Metabolic stability in rabbit liver microsomes assessed as intrinsic clearance at 10 uM preincubated for 5 mins followed by NADPH addition and measured upto 60 mins by HPLC analysis", "format": "ADME, Oryctolagus cuniculus, Microsome", "conditions": "time < 65 min, read-out: CLH"}, "[7]": {"tested_on": "PC-9", "assay": "Induction of apoptosis in human PC-9 cells expressing EGFR L858R/T790M/C797S mutant assessed as necrotic cells at 0.5 uM incubated for 48 hrs by Annexin V-FITC/PI staining based flow cytometric analysis (reference value: 0.540 %)", "format": "functional"}, "[8]": {"assay": "Metabolic stability in human liver microsomes assessed as intrinsic clearance at 10 uM preincubated for 5 mins followed by NADPH addition and measured upto 60 mins by HPLC analysis", "format": "ADME, Microsome", "conditions": "time < 65 min, read-out: CLH"}, "[9]": {"assay": "Metabolic stability in dog liver microsomes assessed as half-life at 10 uM preincubated for 5 mins followed by NADPH addition and measured upto 60 mins by HPLC analysis", "format": "ADME, Canis lupus familiaris, Microsome", "conditions": "time < 65 min"}, "[10]": {"tested_on": "PC-9", "assay": "Induction of apoptosis in human PC-9 cells expressing EGFR L858R/T790M/C797S mutant assessed as necrotic cells at 1 uM incubated for 48 hrs by Annexin V-FITC/PI staining based flow cytometric analysis (reference value: 0.540 %)", "format": "functional"}, "[11]": {"tested_on": "PC-9", "assay": "Induction of apoptosis in human PC-9 cells expressing EGFR L858R/T790M/C797S mutant assessed as necrotic cells at 0.1 uM incubated for 48 hrs by Annexin V-FITC/PI staining based flow cytometric analysis (reference value: 0.540 %)", "format": "functional"}, "[12]": {"tested_on": "PC-9", "assay": "Induction of apoptosis in human PC-9 cells expressing EGFR Del19/T790M/C797S mutant assessed as necrotic cells at 0.1 uM incubated for 48 hrs by Annexin V-FITC/PI staining based flow cytometric analysis (reference value: 0.090 %)", "format": "functional"}, "[13]": {"tested_on": "PC-9", "assay": "Induction of apoptosis in human PC-9 cells expressing EGFR L858R/T790M/C797S mutant assessed as early apoptotic cells at 0.1 uM incubated for 48 hrs by Annexin V-FITC/PI staining based flow cytometric analysis (reference value: 0.210 %)", "format": "functional"}, "[14]": {"tested_on": "PC-9", "assay": "Induction of apoptosis in human PC-9 cells expressing EGFR Del19/T790M/C797S mutant assessed as viable cells at 0.1 uM incubated for 48 hrs by Annexin V-FITC/PI staining based flow cytometric analysis (reference value: 99.8 %)", "format": "functional", "conditions": "read-out: Activity"}, "[15]": {"tested_on": "PC-9", "assay": "Induction of apoptosis in human PC-9 cells expressing EGFR L858R/T790M/C797S mutant assessed as viable cells at 1 uM incubated for 48 hrs by Annexin V-FITC/PI staining based flow cytometric analysis (reference value: 98.9 %)", "format": "functional", "conditions": "Homo sapiens, PC-9, read-out: Activity"}, "[16]": {"tested_on": "MCF7", "assay": "cells", "conditions": "Homo sapiens, MCF7, 72 h", "description": "Cytotoxicity against human MCF7 cells assessed as inhibition of cell proliferation incubated for 72 hrs by CCK8 assay"}, "[17]": {"tested_on": "PC-9", "assay": "Induction of apoptosis in human PC-9 cells expressing EGFR Del19/T790M/C797S mutant assessed as early apoptotic cells at 0.1 uM incubated for 48 hrs by Annexin V-FITC/PI staining based flow cytometric analysis (reference value: 0.050 %)", "format": "functional"}, "[18]": {"tested_on": "PC-9", "assay": "Antitumor activity against human PC-9 cells expressing EGFR L858R/T790M/C797S mutant xenografted in BALB/c nude mouse assessed as tumor growth inhibition at 40 mg/kg, po administered for 18 days relative to control", "format": "functional", "conditions": "Mus musculus, PC-9, 432 h, time 18 day, read-out: TGI"}, "[19]": {"assay": "Metabolic stability in mouse liver microsomes assessed as intrinsic clearance at 10 uM preincubated for 5 mins followed by NADPH addition and measured upto 60 mins by HPLC analysis", "format": "ADME, Microsome", "conditions": "time < 65 min, read-out: CLH"}, "[20]": {"tested_on": "PC-9", "assay": "Antitumor activity against human PC-9 cells expressing EGFR L858R/T790M/C797S mutant xenografted in BALB/c nude mouse assessed as reduction in tumor weight at 10 to 40 mg/kg, po administered for 18 days", "format": "functional, organism-based", "conditions": "dose 10-40 mg/kg, time 18.0 day"}, "[21]": {"tested_on": "PC-9", "assay": "Induction of cell cycle arrest in human PC-9 cells expressing EGFR L858R/T790M/C797S mutant assessed as accumulation of cells at G0/G1 phase at low dose incubated for 24 hrs by PI staining based flow cytometric analysis", "format": "functional"}, "[22]": {"tested_on": "A-431", "assay": "cells", "conditions": "Homo sapiens, A-431, 72 h", "description": "Cytotoxicity against human A-431 cells assessed as inhibition of cell proliferation incubated for 72 hrs by CCK8 assay"}, "[23]": {"tested_on": "PC-9", "assay": "Induction of apoptosis in human PC-9 cells expressing EGFR Del19/T790M/C797S mutant assessed as viable cells at 1 uM incubated for 48 hrs by Annexin V-FITC/PI staining based flow cytometric analysis (reference value: 99.8 %)", "format": "functional", "conditions": "Homo sapiens, PC-9, read-out: Activity"}, "[24]": {"tested_on": "PC-9", "assay": "Induction of cell cycle arrest in human PC-9 cells expressing EGFR Del19/T790M/C797S mutant assessed as accumulation of cells at G2/M phase at 1 uM incubated for 24 hrs by PI staining based flow cytometric analysis", "format": "functional"}, "[25]": {"assay": "Metabolic stability in mouse liver microsomes assessed as half-life at 10 uM preincubated for 5 mins followed by NADPH addition and measured upto 60 mins by HPLC analysis", "format": "ADME, Microsome", "conditions": "time < 65 min"}},
  "note": "Active and inactive are the calls of the source. No cut-off for these calls is given here.",
  "data": [
    {"smiles": "C=CC(=O)Nc1cc(Nc2ncc(F)c(-c3ccc4cc(C(=O)NC)n(C(C)C)c4c3)n2)ccc1N1CCN(C)CC1", "values": [
      {"measurement": "IC50", "setting": "[1]", "value": 108, "unit": "nM"},
      {"measurement": "Activity", "setting": "[2]", "value": 8.3, "unit": "%"},
      {"measurement": "inhibition in vivo at 20 mg/kg", "setting": "[3]", "value": 58.4, "unit": "%"},
      {"measurement": "half-life at 10 µM", "setting": "[4]", "value": 1.48, "unit": "h"},
      {"measurement": "Activity", "setting": "[5]", "value": 1.01, "unit": "%"},
      {"measurement": "microsomal CLint at 10 µM", "setting": "[6]", "value": 32.7, "unit": "µL/min/mg"},
      {"measurement": "Activity", "setting": "[7]", "value": 1.77, "unit": "%"},
      {"measurement": "microsomal CLint at 10 µM", "setting": "[8]", "value": 20, "unit": "µL/min/mg"},
      {"measurement": "half-life at 10 µM", "setting": "[9]", "value": 4.28, "unit": "h"},
      {"measurement": "Activity", "setting": "[10]", "value": 0.91, "unit": "%"},
      {"measurement": "Activity", "setting": "[11]", "value": 5.84, "unit": "%"},
      {"measurement": "Activity", "setting": "[12]", "value": 3.55, "unit": "%"},
      {"measurement": "Activity", "setting": "[13]", "value": 2.03, "unit": "%"},
      {"measurement": "viability at 0.1 µM", "setting": "[14]", "value": 85.8, "unit": "%"},
      {"measurement": "viability at 1 µM", "setting": "[15]", "value": 58.8, "unit": "%"},
      {"measurement": "IC50", "setting": "[16]", "value": 3610, "unit": "nM"},
      {"measurement": "Activity", "setting": "[17]", "value": 3.32, "unit": "%"},
      {"measurement": "inhibition in vivo at 40 mg/kg", "setting": "[18]", "value": 70.6, "unit": "%"},
      {"measurement": "microsomal CLint at 10 µM", "setting": "[19]", "value": 56, "unit": "µL/min/mg"},
      {"measurement": "Activity", "setting": "[20]", "value": "Active"},
      {"measurement": "Activity", "setting": "[21]", "value": "Active"},
      {"measurement": "IC50", "setting": "[22]", "value": 1070, "unit": "nM"},
      {"measurement": "viability at 1 µM", "setting": "[23]", "value": 79.1, "unit": "%"},
      {"measurement": "Activity", "setting": "[24]", "value": "Active"},
      {"measurement": "half-life at 10 µM", "setting": "[25]", "value": 1.38, "unit": "h"}
    ]}
  ]
}
